Assays:
[1] = tested on: Thiovir™ resistant HIVLAI, selection 2 (L214F, M184I); assay: IC50 by MAGI assay on selected resistant virus; format: cell-based, HIV-1; settings: for Susceptibility Index (IC50 Resistant Virus/IC50 Purent Virus): Drug Resistant Virus: Thiovir ™ (Selection # 2), MAGI assay
Protocol: (§1) Thiovir™ and foscarnet resistant viruses were selected by in vitro passage of HIVLAI on H9 cells in the presence of escalating concentrations of drug. Resistant virus was evaluated for phenotypic changes by IC50 determination using the MAGI assay. Furthermore, the viral DNA was sequenced to determine genotypic variations (Table 4). Two independent 13 to 15 round selections were performed.

[2] = tested on: Thiovir™ resistant HIVLAI, selection 1 (L214F, R172K, Q174R); assay: IC50 by MAGI assay on selected resistant virus; format: cell-based, HIV-1; settings: for Susceptibility Index (IC50 Resistant Virus/IC50 Purent Virus): Drug Resistant Virus: Thiovir ™ (Selection # 1), MAGI assay
Protocol: as §1

[3] = tested on: Foscarnet resistant HIVLAI, selection 2 (L214F, M184I); assay: IC50 by MAGI assay on selected resistant virus; format: cell-based, HIV-1; settings: Drug Resistant Virus: Foscarnet (Selection # 2)
Protocol: as §1

[4] = tested on: Foscarnet resistant HIVLAI, selection 1 (L214F, R172K); assay: IC50 by MAGI assay on selected resistant virus; format: cell-based, HIV-1; settings: Drug Resistant Virus: Foscarnet (Selection # 1)
Protocol: as §1

[5] = tested on: panel of NRTI and NNRTI resistant HIV-1; assay: PhenoSense reporter assay, panel of ten resistant viruses; format: cell-based; settings: FIG. 2; for susceptibility of the resistant virus panel: all viruses of the panel
Source text: Antiviral activity also can be quantitatively measured using a PhenoSense™ assay. A PhenoSense™ assay uses nucleic acid amplification to derive HIV protease and reverse transcriptase nucleic acid sequences from plasma. The patient-derived sequences are incorporated into a viral vector to construct a resistance test vector (RTV). The viral vector also contains an indicator or reporter gene (e.g., green fluorescent protein, luciferase, beta galactosidase, etc.) inserted within a deleted portion of the HIV envelope gene. The reporter gene is under the control of a strong promoter (e.g., a CMV promoter) in the RTV.
The PhenoSense™ assay is performed by introducing the RTV nucleic acid sequence into host cells, collecting virus particles after transfection, and using the virus particles to infect target cells. Drug susceptibility is measured by comparing reporter gene activity produced in the presence and absence of drugs. The presence of drug can be one or more different concentrations, for example, several titrated concentrations.
The data are analyzed by plotting the percent inhibition of viral replication, as measured by reporter gene activity, against the log10 concentration of drug for the patient virus (in the RTV) and a drug sensitive reference virus. The resulting drug susceptibility curve is used to calculate the concentration of drug required to inhibit viral replication by 50% (IC50). A shift in the patient inhibition curve toward a higher drug concentration as compared to the curve of the drug-sensitive reference virus is interpreted as reduced drug susceptibility. A shift in the patient inhibition curve toward a lower drug concentration as compared to the curve of the drug-sensitive reference virus is interpreted as increased drug susceptibility. PhenoSense™ can be conducted by a commercial service provider, for example, Monogram Biosciences, South San Francisco, Calif.
All Phenosense™ assays were performed at Virologic, Inc as described (Petropoulos, et al. (2000) Antimicrob Agents Chemother 44:920). Briefly, the envelope gene is deleted from wild type HIV-1 and luciferase reporter inserted under control of a strong CMV promoter. Viral stocks are produced by co-transfection of producer cells with the recombinant viral DNA and a vector that expresses envelope protein from an amphotropic murine leukemia virus. Pseudotyped viral particles are replication defective and only undergo one round of infection. Expression of the luciferase gene in target cells is dependent on a single round of infection.
The activity of Thiovir™ was evaluated against viruses that are resistant to common NRTI and NNRTI drugs using the Phenosense™ reporter system (Petropoulos, supra). […]

HIV in H9 T-cells = format: cell-based; settings: p24 assay; combined with tenofovir at a ratio of 1:1
Protocol: Reduction in viral titer also can be measured using an ELISA capture assay with antibodies specific for viral capsid proteins (e.g., HIV-1 p24).
H9 T-cells were pretreated with polybrene at 4 μg/ml and drug at indicated concentrations in RPMI plus 10% fetal calf serum for 30 minutes prior to adsorption of virus at multiplicities of infection (MOI) 0.1 for 2 hours at 37° C., 5% CO2. Cells were washed 3 times with PBS and resuspended in fresh media plus drug. Incubation at 37° C., 5% CO2 was continued for 4-6 days and cells centrifuged at 1200 rpm. Supernatants were removed and p24 detected by quantitative antigen capture kit (Zeptometrix, Buffalo, N.Y.).

[6] = tested on: Thiovir™ and foscarnet selected virus; assay: Susceptibility of selected viruses; format: cell-based, HIV-1; settings: both Thiovir™ and foscarnet selected virus
Protocol: Wild type and antiviral drug resistant HIV were tested for sensitivity to anti-viral drugs using either MAGI assay or Phenosense™ assay. The 50% inhibitory concentration, IC50, was then determined from a plot of percent inhibition vs. log10 drug concentration.
MAGI cells were seeded at approximately 5×10^4 cells per well in a 12 well plate in DMEM with 10% fetal calf serum and incubated overnight at 37° C. in 5% CO2. Drug was added at various concentrations and incubated for approximately 30 to 60 minutes. Cells were infected with either HIV-1 HXB2 or HIV-1IIIB in the presence of either 4 microg/ml polybrene or 60 microg/ml dextran. Infection was continued for 48 hours and cells fixed using 0.05% glutaraldehyde. […] Blue nuclei were counted under a microscope at 100× magnification.
To select for drug resistant variants, 1×10^6H9 cells were pretreated for two hours at three concentrations of AZT (0.5, 1 and 2 μM), Nevirapine (0.5, 1 and 2 μM), foscarnet (25 and 50 μM) and Thiovir™ (25 and 50 μM) prior to infection at MOI of 0.1 of HIVIIIB or HIVLAI. […] Virus was passaged at increasing drug concentration and monitored for increase in IC50. […]
Thiovir™ and foscarnet resistant viruses were selected by in vitro passage of HIVLAI on H9 cells in the presence of escalating concentrations of drug. Resistant virus was evaluated for phenotypic changes by IC50 determination using the MAGI assay. […]

| SMILES | Susceptibility Index (IC50 Resistant Virus/IC50 Purent Virus) [1] | Susceptibility Index (IC50 Resistant Virus/IC50 Purent Virus) [2] | Susceptibility Index (IC50 Resistant Virus/IC50 Purent Virus) [3] | Susceptibility Index (IC50 Resistant Virus/IC50 Purent Virus) [4] | susceptibility of the resistant virus panel [5] | susceptibility of the majority of the panel viruses [5] | drug interaction in words, combined with tenofovir (HIV in H9 T-cells) | susceptibility of selected virus in words [6] | resistance of selected virus ([1]; second Thiovir™ selected resistant virus) | resistance of selected virus ([2]; first Thiovir™ selected resistant virus) |
| --- | --- | --- | --- | --- | --- | --- | --- | --- | --- | --- |
| O=C(O)P(=O)(O)O [Foscarnet, phosphonoformic acid] | 85 | 4.8 | 103 | 4.1 | sensitive | hypersensitive | additive to antagonistic | – | – | – |
| Cc1ccnc2c1NC(=O)c1cccnc1N2C1CC1 [Nevirapine] | – | 1.05 | – | 1.06 | – | – | – | sensitive | – | – |
| O=C(O)P(O)(O)=S [Thiovir™, thiophosphonoformic acid] | 113 | 4.8 | 100 | 6.3 | sensitive | hypersensitive | synergy | – | 85 fold | 4.8 fold |
| Cc1cn([C@H]2C[C@H](N=[N+]=[N-])[C@@H](CO)O2)c(=O)[nH]c1=O [Zidovudine, Azidothymidine] | 0.35 | 0.22 | 0.58 | 0.87 | – | – | – | – | – | – |

— patent publication US20090291908A1, “Use of thiophoshonoformic acid and nrtis to treat viral infections” (priority 2005, published 2009)
